Patent publication US9289443B2, “Pharmaceutical composition and method for preventing or treating hepatitis C” (INDUSTRIAL TECHNOLOGY RESEARCH INSTITUTE, priority 2010, dated 2016)
Where two headings read alike, the source gives them in different places.

How the values were obtained:
[1] = Cell cytotoxic test (MTT) on Huh-luc/neo-ET cells; type: cell-based; details: human, concentration for 50% cell kill, two-day culture
Method: (§1) Cell Cytotoxic Test on Huh-luc/noe-ET Cells
(§2) Huh-luc/neo-ET cells with a concentration of 2.5×10^4 cells/100 μl/well were seeded into a 96 well culture plate (Corning Incorporation COSTAR, 3599) and placed into a cell incubator for culturing.
(§3) The next day, the oleanolic acid derivatives as listed in the following Tables 1 and 2 were diluted with a DMEM culture medium to the concentrations of 28.73 μg/ml, 9.57 μg/ml, 3.19 μg/ml, 1.06 μg/ml, 0.35 μg/ml, 0.11 μg/ml, 0.039 μg/ml and 0.013 μg/ml, respectively, or diluted to the concentrations of 114.92 μg/ml, 38.33 μg/ml, 12.77 μg/ml, 4.25 μg/ml, 1.42 μg/ml, 0.46 μg/ml, 0.16 μg/ml and 0.057 μg/ml, respectively. The initial medium in the 96 well culture plate was sucked out by a vacuum pump (DOAT-704AA) without removing the cells. Then, the culture medium containing the oleanolic acid derivatives were added into the 96 well culture plate containing 100 μl/well of the cells as the experiment groups, while the untreated culture mediums were added to the cells as a control.
(§4) After a two-day culture, the medium was removed and each well containing cells was washed by 100 μl of 1×PBS (1 mM KH2PO4, 10 mM Na2HPO4, 137 mM NaCl, 2.7 mM KCl) twice. Precipitates were recorded and PBS was removed. 50 μl of the medium containing 0.5 mg/ml of MTT (Sigma, M2128) was added into each well of the 96 well culture plate. The 96 well culture plate was placed in a CO2 culture incubator for 1 hour. Subsequently, 150 μl of DMSO (Riedel-de Haül, 60153) was added to each well of the 96 well culture plate and vortexed (KS shaker Type 670) to thoroughly mix the resulting purple precipitates. The 96 well culture plate was then placed in a continuous wave length microwell plate analysis system (Molecular Devices, SPECTRAMAX 190) to measure the absorbance of cells at a wavelength of 560 nm.
(§5) The average absorbance of the control was set as 100% of the cell survival rates (%) to calculate the cell survival rates (%) of the experiment groups with different concentrations of the oleanolic acid derivatives.
(§6) The cell survival rate was calculated by the following formula: Absorbance of the experiment group/Absorbance of the control×100%
(§7) The data of the cell survival rates for all experiment groups were plotted on an x-y graph to see the distribution. A trend line was obtained. […]

Huh-luc/neo-ET cells = assay: Cell cytotoxic test (MTT) on Huh-luc/neo-ET cells; type: cell-based; details: two-day culture; for CC15: concentration for 15% cell kill; for CC50: concentration for 50% cell kill
Method: as §1, §2, §3, §4, §5, §6, §7

[2] = test system: HCV replicon system (Huh-luc/neo-ET cell carrying I389luc-ubi-NS3-3'/ET); assay: Inhibition of the HCV replication by determining the firefly luciferase activity (HCV replicon system); type: cell-based, Hepatitis C virus; details: for EW (CC50/IC50): ratio of CC50/IC50
Text: HCV replicon system was used to test the effects of compounds on the treatment and prevention of hepatitis C. The HCV replicon system has been acknowledged as a screening tool for new drugs (Lohmann, V. et al., 1999, Replication of subgenomic hepatitis C virus RNAs in hepatoma cell line, Science. Vol. 285, 110-113; Bartenschlager, R. 2002, Hepatitis C virus replicons: potential role for drug development, Nature Reviews/Drug Discovery. Vol. 1, 911-916; Vorlijk, J. M. et al., 2003, A replicon-based bioassay for the measurement of interferons in patients with chronic hepatitis C, Journal of Virological Methods. 110:201-209). The HCV replicon system includes a Huh-luc/neo-ET cell carrying I389luc-ubi-NS3-3′/ET gene construct which monitors the replicative capability of the HCV. In the HCV replicon system, a firefly luciferase-ubiquitin-neomycin fusion protein is expressed by the translation of the internal ribosomal entry site (IRES) of the HCV, and the hepatitis C viral nonstructural proteins (NS3-5B), which includes protease, helicase and polymerase, are expressed by the translation of the IRES of the encephalomyocarditis virus (EMCV).
The IRES of the hepatitis C virus or the hepatitis C viral nonstructural proteins consist of a replication complex. When the replication complex is affected by the candidate compound, the activity of the HCV replicon system is inhibited and the activity of the luciferase is reduced. Accordingly, the inhibition of the HCV can be estimated by determining the activity of the intensity of the luciferase expressed by the Huh-luc/noe-ET cell.
Inhibition of the HCV Replication by Determining the Firefly Luciferase Activity
as §2
The oleanolic acid derivatives as listed in Table 2 were co-cultured with Huh-luc/neo-ET cells for 2 days. The mediums were washed twice by 100 μl of 1×PBS (1 mM KH2PO4, 10 mM Na2HPO4, 137 mM NaCl, 2.7 mM KCl) and PBS was removed. 35 μl of 1× passive lysis buffer (Promega, E1941) was added to the cells and vortexed for 10 minutes to thoroughly lysis the cells.
30 μl/well of the cell suspension was then added to a 96 well white plate (NUNC, 236108) for the measurement of the luciferase activity. Subsequently, 40 μl/well of luminescence analysis buffer and 20 μl/well of luminescence substrate (1 mM D-Luciferin) were added into the 96 well white plates. The luciferase activity (Rlu/s) was measured by a microplate luminescence meter (Berthold, MPL4) immediately.
The luciferase activity of the control was set as a standard to calculate the inhibition rates (%) of HCV of the experiment groups. The inhibition rates was calculated by the following formula: […]
After the test compounds were serial diluted and the inhibition rates of the HCV replication were determined at different concentrations, the concentration at 50% inhibition of the HCV replication (IC50) was calculated by grafit5 software (Erithacus Software).
For each experiment, 0.5 ng/ml and 0.1 ng/ml of the PEG IFN alpha-2a were used as positive controls for the IC50 test. Meanwhile, 1 μg/ml of cyclosporine A (CsA) was also used as a positive control for the IC50 test.

[3] = Hepatitis C virus, Huh-luc/neo-ET, 48 h, compound concentration 10 μM, 2 days co-culture, luciferase activity, read-out: Inhibition rate (%)
[4] = Hepatitis C virus, concentration for 50% inhibition of the HCV replication, Huh-luc/neo-ET replicon cells, read-out: IC50
[5] = compound concentration 10 μM, 2 days co-culture, luciferase activity
[6] = Hepatitis C virus, Huh-luc/neo-ET
[7] = Hepatitis C virus, Huh-luc/neo-ET, 48 h, read-out: Inhibition rate (%)

SMILES	CC50 at 2 days [1] [µM]	CC15 (Huh-luc/neo-ET cells) [µM]	inhibition at 10 µM [2, 3] [%]	EW (CC50/IC50) [2]	also measured
CC1(C)CC[C@]2(C(=O)O)CCC3=C([C@@H](CCl)C[C@@H]4[C@@]5(C)C[C@H](O)[C@H](O)[C@@](C)(C(=O)O)[C@@H]5CC[C@@]34C)[C@@H]2C1 [A01]	> 100	>100	41.5 ± 26.7		
C[C@@H]1OC(O[C@H]2C(OC(=O)[C@]34CCC(C)(C)C[C@H]3C3=CC[C@@H]5[C@@]6(C)C[C@H](O)[C@@H]7OC8O[C@H](CO)[C@@H](O)[C@H](O)[C@H]8OC8OC[C@H](O)[C@H](O)[C@H]8OC(=O)CC(C)(O)CC(=O)OC[C@H]7[C@@H]6CC[C@@]5(C)[C@]3(C)CC4)OC[C@H](O)[C@@H]2O)[C@H](O)[C@H](OC2OC[C@@H](O)[C@H](O)[C@H]2O)[C@H]1O (stereo partly drawn) [A02]	15.2	2.9	96.7 ± 0.6	44.71	IC50 [2, 4]: 0.34 ± 0.06 µM
C[C@H]1O[C@@H](O[C@H]2CC[C@@]3(C)[C@@H](CC[C@]4(C)[C@@H]3C=C[C@]35OC[C@@]6(CCC(C)(C)C[C@H]63)[C@@H](O)C[C@]54C)[C@]2(C)CO)[C@H](O)[C@@H](O[C@@H]2O[C@H](CO)[C@@H](O)[C@H](O)[C@H]2O)[C@H]1O [A03, Saikosaponin A]		12.7			CC50 (Huh-luc/neo-ET cells): 23.1 µM; Inhibition rate (%) [2, 5]: 13.3 ± 8%
C[C@@H]1O[C@@H](O[C@@H]2[C@H](O)[C@@H](O)[C@H](O[C@H]3CC[C@@]4(C)C(CC[C@]5(C)C4C=C[C@]46OC[C@@]7(CCC(C)(C)CC74)[C@@H](O)C[C@]65C)C3(C)C)O[C@@H]2CO[C@@H]2O[C@H](CO)[C@@H](O)[C@H](O)[C@H]2O)[C@H](O)[C@H](O)[C@H]1O (stereo partly drawn) [A04, Saikosaponin C]		>100			CC50 (Huh-luc/neo-ET cells): > 100 µM; Inhibition rate (%) [2, 5]: 3.1 ± 12.9%
C[C@H]1O[C@@H](O[C@H]2CC[C@@]3(C)[C@@H](CC[C@]4(C)[C@@H]3C=C[C@]35OC[C@@]6(CCC(C)(C)C[C@H]63)[C@H](O)C[C@]54C)[C@]2(C)CO)[C@H](O)[C@@H](O[C@@H]2O[C@H](CO)[C@@H](O)[C@H](O)[C@H]2O)[C@H]1O [A05, Saikosaponin D]		16.1			CC50 (Huh-luc/neo-ET cells): 23.2 µM; Inhibition rate (%) [2, 5]: 50 ± 11.6%
CC(=O)OCC1OC(OC2COC(OC3COC(OC4C(OC5C(CO)OC(OC6CCC7(C)C(CCC8(C)C7CC=C7C9CC(C)(C)CCC9(C(=O)OC9OC(CO)C(O)C(O)C9OC9OCC(O)C(OC%10OCC(O)(CO)C%10O)C9O)C(O)CC78C)C6(C)C)C(O)C5O)OCC(O)C4O)C(O)C3O)C(O)C2O)C(OC(=O)/C=C/c2ccccc2)C(O)C1OC(C)=O (stereo not drawn) [A06]	25.2	8.9		2520	inhibition at 8 µM ([2]; Hepatitis C virus, Huh-luc/neo-ET, 48 h, compound concentration 8 μM, 2 days co-culture, luciferase activity, read-out: Inhibition rate (%)): 94.7 ± 1.1%; IC50 [2, 4]: 0.01 ± 0.004 µM
CC(=O)OC1C(OC(C)=O)[C@]2(CO)C(OC(C)=O)C[C@]3(C)C(=CCC4[C@@]5(C)CC[C@H](OC6OC(C(C)=O)C(O)C(OC7OC(CO)C(O)C(O)C7O)C6O)C(C)(C)C5CC[C@]43C)C2CC1(C)C (stereo partly drawn) [A07]	> 100	>100	10.3 ± 11.7		
CC1(C)CC[C@]2(C(=O)O)CC[C@]3(C)C(=CCC4[C@@]5(C)C[C@@H](O)[C@H](O)[C@@](C)(COC(=O)/C=C/c6ccc(O)cc6)C5CC[C@]43C)C2C1 (stereo partly drawn) [A08]	72	9.6	0.4 ± 22		
CC1(C)CC[C@]2(C(=O)O)CC[C@]3(C)C(=CCC4[C@@]5(C)C[C@@H](O)[C@H](OC(=O)/C=C/c6ccc(O)cc6)C(C)(C)C5CC[C@]43C)C2C1 (stereo partly drawn) [A09]	26.1	3.1	13.6 ± 0.5		
C=CC(C)(O)CCCC(C)C(=O)OC1C(OC2OCC(OC3OC(CO)C(O)C(O)C3O)C(OC3OCC(O)C(OC4OC(CO)C(O)C(O)C4O)C3O)C2O)COC(OC(=O)C23CCC(C)(C)CC2C2=CCC4C5(C)CCC(OC6OC(CO)C(OC7OC(CO)C(O)C(OC8OCC(O)C(O)C8O)C7O)C(O)C6O)C(C)(C)C5CCC4(C)C2(C)CC3O)C1O (stereo not drawn) [A10]	39.1	2.2		126.13	inhibition at 2 µM ([2]; Hepatitis C virus, Huh-luc/neo-ET, 48 h, compound concentration 2 μM, 2 days co-culture, luciferase activity, read-out: Inhibition rate (%)): 95.7 ± 0.6%; IC50 [2, 4]: 0.31 ± 0.04 µM
C/C=C(/C)C(=O)OC1C(O)C(C)(C)CC2C3=CCC4C5(C)CCC(OC6OC(C(=O)O)C(O)C(OC7OCC(O)C(O)C7O)C6OC6OC(CO)C(O)C(O)C6O)C(C)(C)C5CCC4(C)C3(C)C(OC(C)=O)C(O)C21CO (stereo not drawn) [A11]	29.8	6.1			inhibition at 5 µM ([2]; Hepatitis C virus, Huh-luc/neo-ET, 48 h, compound concentration 5 μM, 2 days co-culture, luciferase activity, read-out: Inhibition rate (%)): 28.3 ± 9.1%
COc1ccc(/C=C/C(=O)OC2C(C)OC(OC(=O)C34CCC(C)(C)CC3C3=CCC5[C@@]6(C)CC[C@H](OC7OC(C(=O)O)C(O)C(O)C7OC7OC(CO)C(O)C(O)C7O)[C@@](C)(C=O)C6CC[C@@]5(C)[C@]3(C)C[C@H]4O)C(OC3OC(C)C(O)C(O)C3OC3OCC(O)C(O)C3O)C2O)cc1 (stereo partly drawn) [A12]	> 100	>100		1250	IC50 [2, 6]: 0.08 ± 0.003 µM; inhibition at 10 µM [2, 7]: 95.8 ± 1%
CC(=O)OC1C(OC(=O)C(C)C)C2(CO)C(CC1(C)C)C1=CCC3C4(C)CCC(OC5OC(C)C(OC6OC(C(=O)O)C(O)C(OC7OC(CO)C(O)C(O)C7OC7OC(CO)C(O)C(O)C7O)C6O)C(O)C5O)C(C)(C)C4CCC3(C)C1(C)C(O)C2O (stereo not drawn) [A13]	100	16.1		30.21	inhibition at 15 µM ([2]; Hepatitis C virus, Huh-luc/neo-ET, 48 h, compound concentration 15 μM, 2 days co-culture, luciferase activity, read-out: Inhibition rate (%)): 93 ± 0.4%; IC50 [2, 4]: 3.31 ± 0.29 µM
C/C=C(/C)C(=O)OC1CC(C)(C)CC2C3=CCC4C5(C)CCC(OC6OC(C)C(OC7OC(C(=O)O)C(O)C(OC8OC(CO)C(O)C(O)C8OC8OC(CO)C(O)C(O)C8O)C7O)C(O)C6O)C(C)(C)C5CCC4(C)C3(C)C(OC(=O)/C=C/C=C/C=C/CCC)C(O)C12CO (stereo not drawn) [A14]	> 100	5.9		51.28	IC50 [2, 6]: 1.95 ± 0.12 µM; inhibition at 5 µM [2, 7]: 89.3 ± 0.8%
